Assay results as given in article PMC9505659, “Mixture Effects of Tryptophan Intestinal Microbial Metabolites on Aryl Hydrocarbon Receptor Activity” (International Journal of Molecular Sciences, 2022).
Read-outs that look alike come from different tables or passages of the source.

Columns and labels:
AHR [1] = biological target: T1, AHR (Homo sapiens, UniProt P35869); experiment: High-throughput AHR reporter gene assay in AZ-AHR cells;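 also: luciferase activity measured in lysed AZ-AHR reporter cells after 4 h compound exposure, with 0.1% DMSO as vehicle control and 5 nM TCDD as reference agonist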
T1 sequence (P35869 11-848): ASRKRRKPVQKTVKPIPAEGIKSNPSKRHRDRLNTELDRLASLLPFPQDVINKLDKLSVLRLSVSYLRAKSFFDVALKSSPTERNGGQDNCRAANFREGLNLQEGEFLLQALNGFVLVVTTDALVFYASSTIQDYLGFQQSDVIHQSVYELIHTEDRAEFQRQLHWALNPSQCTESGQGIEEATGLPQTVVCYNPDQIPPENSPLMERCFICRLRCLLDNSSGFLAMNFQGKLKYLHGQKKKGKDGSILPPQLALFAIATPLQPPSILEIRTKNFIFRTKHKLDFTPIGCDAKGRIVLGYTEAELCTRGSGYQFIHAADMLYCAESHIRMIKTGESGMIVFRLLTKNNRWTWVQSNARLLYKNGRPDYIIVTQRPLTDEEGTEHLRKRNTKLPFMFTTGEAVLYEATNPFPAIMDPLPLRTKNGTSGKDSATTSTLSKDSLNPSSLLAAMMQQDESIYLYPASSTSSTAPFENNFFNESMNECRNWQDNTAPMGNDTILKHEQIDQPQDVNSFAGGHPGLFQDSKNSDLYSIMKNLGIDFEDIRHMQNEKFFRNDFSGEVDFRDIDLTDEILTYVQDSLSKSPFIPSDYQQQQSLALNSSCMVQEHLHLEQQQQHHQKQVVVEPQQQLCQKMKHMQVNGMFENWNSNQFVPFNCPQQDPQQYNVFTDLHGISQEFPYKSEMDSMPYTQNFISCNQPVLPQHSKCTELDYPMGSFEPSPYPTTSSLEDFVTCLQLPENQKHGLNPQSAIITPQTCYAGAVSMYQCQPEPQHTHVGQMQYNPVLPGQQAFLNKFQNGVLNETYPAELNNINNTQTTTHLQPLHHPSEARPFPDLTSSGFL
Experimental: (§2) After 24 h of incubation, the cells were treated with the reference (5 nM TCDD) and tested compounds using a contact-free acoustic liquid handler ECHO 550 (Labcyte, San Jose, CA, USA). […] The cells were incubated with the tested compounds for 4 h. Thereafter, the cells were washed with PBS by Washer EL406 (BioTek, Winooski, VT, USA) and lysed by 1x gene reporter lysis buffer (E3971, Promega). After adding the substrate (D-Luciferin, L9504, Sigma) with a dispenser Multidrop Combi (ThermoFisher Scientific), the luciferase activity was measured on a multimode plate reader EnVision (PerkinElmer). The experiments were performed in technical duplicates and three biological replicates at least.

AHR [2] = test system: AHR; set-up: method as in PMID 32283770; settings: reporter hepatic cell line, 24 h of incubation; cited from earlier work
[3] = biological target: T2, peroxisome proliferator-activated receptor gamma (PPARγ) (Homo sapiens, UniProt P37231); experiment: Nuclear receptor counter-screen, luciferase reporter assay PAZ-PPARg cells; format: cell-based; settings: 15d-PGDJ 40 µM, 24 h
T2 construct: PAZ-PPARg (derived from the human bladder carcinoma cell line T24/83); endogenous in cells; host or cells: PAZ-PPARg (T24/83 stably transfected reporter line)
T2 sequence (P37231 1-505): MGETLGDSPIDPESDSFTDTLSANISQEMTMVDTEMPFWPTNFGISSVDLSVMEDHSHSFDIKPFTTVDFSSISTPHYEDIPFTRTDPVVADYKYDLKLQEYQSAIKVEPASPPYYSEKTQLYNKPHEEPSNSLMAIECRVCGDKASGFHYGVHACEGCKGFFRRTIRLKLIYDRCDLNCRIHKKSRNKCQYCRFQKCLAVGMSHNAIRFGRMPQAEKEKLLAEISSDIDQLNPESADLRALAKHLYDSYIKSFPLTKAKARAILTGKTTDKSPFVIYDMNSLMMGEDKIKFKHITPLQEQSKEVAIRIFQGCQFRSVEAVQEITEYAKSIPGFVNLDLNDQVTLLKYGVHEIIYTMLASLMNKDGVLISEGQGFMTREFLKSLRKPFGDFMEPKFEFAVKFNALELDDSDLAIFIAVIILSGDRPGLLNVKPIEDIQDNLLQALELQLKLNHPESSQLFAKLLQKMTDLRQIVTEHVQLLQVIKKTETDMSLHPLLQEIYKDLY
Experimental: (§3) The following stably transfected reporter gene cell lines were used to estimate specific receptor activation: AZ-AHR (derived from the human hepatocellular carcinoma cell line HepG2) [41], LS174T-AHR-luc (harboring the reporter plasmid pGL-4.27-DRE and prepared by the same protocol as AZ-AHR, AZ-GR (derived from the human cervix carcinoma cell line HeLa)) [42], and IZ-VDRE (derived from the human colon adenocarcinoma cell line LS180) [43]. Cells were cultured in Dulbecco’s modified Eagle’s medium supplemented with 10% fetal bovine serum, 4 mM L-glutamine, 1% nonessential amino acids and antibiotics, and 100 U/mL Penicillin-Streptomycin. […]
(§4) The reporter cells were seeded into 96-well plates at a density of 2.5 × 10^4 (AZ-AHR, LS174T-AHR-luc, IZ-VDRE), 5 × 10^4 (AIZ-AR), 2.2 × 10^4 (AZ-GR), or 4 × 10^4 (PAZ-PPARg) cells in 0.2 mL of culture medium. […] After treatment, cells were lysed in a lysis buffer and the luciferase activity was measured in a 96-well plate format using the Nano-Glo Luciferase AssaySystem for the PAZ-PPARg and IZ-VDRE cell lines and the Luciferase AssaySystem for the AZ-AHR, LS174T-AHR-luc, AIZ-AR, and AZ-GR cell lines on a Tecan Infinite M200 Pro Plate Reader (Tecan, Männedorf, Switzerland).

AHR [4] = biological target: T1, AHR; set-up: AZ-AHR (derived from the human hepatocellular carcinoma cell line HepG2); endogenous in cells; host or cells: AZ-AHR (HepG2 stably transfected with a reporter); method as in PMID 26235394; settings: 4 h of incubation, human hepatic HepG2 (40/6) reporter cells; cited from earlier work
AZ-AHR cells = experiment: Cell viability assays (MTT, neutral red, LDH) in AZ-AHR cells; format: cell-based, human; settings: 24 h, 2.5 and 5 mM
Experimental: The highest concentrations of the tested compounds were adjusted based on their solubility. […] The MTT (3-(4,5,-dimethylthiazol-2-yl)-2,5-diphenyltetrazolium bromide) colorimetric assay was performed as previously described. The neutral red assay and LDH (Abcam, Cambridge, UK) assays were performed according to the manufacturer’s protocol. Assays were measured spectrophotometrically using a Tecan Infinite M200 plate reader (Tecan, Männedorf, Switzerland).

AHR [5] = biological target: T1, AHR; experiment: AHR luciferase reporter assay in LS174T-AHR-luc cells; format: cell-based; set-up: endogenous in cells; settings: IND 274 µM (highest applied concentration), 4 h, TCDD 20 nM
Excerpt: (§1) The human colon adenocarcinoma cell line LS174T was purchased from the American Type Culture Collection (ATCC). The following stably transfected reporter gene cell lines were used to estimate specific receptor activation: AZ-AHR (derived from the human hepatocellular carcinoma cell line HepG2), LS174T-AHR-luc (harboring the reporter plasmid pGL-4.27-DRE and prepared by the same protocol as AZ-AHR, AZ-GR (derived from the human cervix carcinoma cell line HeLa)), and IZ-VDRE (derived from the human colon adenocarcinoma cell line LS180). Cells were cultured in Dulbecco’s modified Eagle’s medium supplemented with 10% fetal bovine serum, 4 mM L-glutamine, 1% nonessential amino acids and antibiotics, and 100 U/mL Penicillin-Streptomycin. AIZ-AR (derived from the human prostate carcinoma cell line 22RV1) was cultivated in RPMI-1640 medium supplemented with 10% charcoal-stripped fetal bovine serum, 4 mM L-glutamine, and antibiotics 100 U/mL Penicillin-Streptomycin. PAZ-PPARg (derived from the human bladder carcinoma cell line T24/83) was cultivated in Dulbecco’s modified Eagle’s medium supplemented with 10% charcoal-stripped fetal bovine serum, 4 mM L-glutamine and antibiotics, and 100 U/mL Penicillin-Streptomycin. Cells were maintained in 75 cm^2 plastic tissue culture flasks and subcultured twice a week.

vitamin D receptor (VDR) = biological target: T3, vitamin D receptor (VDR) (Homo sapiens, UniProt P11473); experiment: Nuclear receptor counter-screen, luciferase reporter assay IZ-VDRE cells; format: cell-based; settings: VD3 75 nM, 24 h
T3 construct: IZ-VDRE (derived from the human colon adenocarcinoma cell line LS180); endogenous in cells; host or cells: IZ-VDRE (LS180 stably transfected reporter line)
T3 sequence (P11473 1-427): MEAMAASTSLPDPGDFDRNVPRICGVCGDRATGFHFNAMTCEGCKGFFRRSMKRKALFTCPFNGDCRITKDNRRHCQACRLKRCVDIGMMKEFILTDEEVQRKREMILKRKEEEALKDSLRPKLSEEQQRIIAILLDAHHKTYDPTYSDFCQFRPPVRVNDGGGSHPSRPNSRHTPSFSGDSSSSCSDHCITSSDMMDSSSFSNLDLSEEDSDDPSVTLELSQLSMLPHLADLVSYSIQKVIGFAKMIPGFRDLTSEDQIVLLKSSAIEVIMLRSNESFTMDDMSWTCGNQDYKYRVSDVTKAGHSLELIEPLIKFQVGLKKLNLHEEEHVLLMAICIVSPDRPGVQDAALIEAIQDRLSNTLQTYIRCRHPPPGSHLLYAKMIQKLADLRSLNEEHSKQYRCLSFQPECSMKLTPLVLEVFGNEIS
Experimental: as §3, §4

androgen receptor (AR) = settings: DHT 100 nM, 24 h
Experimental: The human colon adenocarcinoma cell line LS174T was purchased from the American Type Culture Collection (ATCC). […] Cells were cultured in Dulbecco’s modified Eagle’s medium supplemented with 10% fetal bovine serum, 4 mM L-glutamine, 1% nonessential amino acids and antibiotics, and 100 U/mL Penicillin-Streptomycin. […] PAZ-PPARg (derived from the human bladder carcinoma cell line T24/83) was cultivated in Dulbecco’s modified Eagle’s medium supplemented with 10% charcoal-stripped fetal bovine serum, 4 mM L-glutamine and antibiotics, and 100 U/mL Penicillin-Streptomycin. Cells were maintained in 75 cm^2 plastic tissue culture flasks and subcultured twice a week.

[6] = biological target: glucocorticoid receptor (GR) (Homo sapiens, UniProt P04150); experiment: cell-based
glucocorticoid receptor (GR), sequence (P04150 whole entry): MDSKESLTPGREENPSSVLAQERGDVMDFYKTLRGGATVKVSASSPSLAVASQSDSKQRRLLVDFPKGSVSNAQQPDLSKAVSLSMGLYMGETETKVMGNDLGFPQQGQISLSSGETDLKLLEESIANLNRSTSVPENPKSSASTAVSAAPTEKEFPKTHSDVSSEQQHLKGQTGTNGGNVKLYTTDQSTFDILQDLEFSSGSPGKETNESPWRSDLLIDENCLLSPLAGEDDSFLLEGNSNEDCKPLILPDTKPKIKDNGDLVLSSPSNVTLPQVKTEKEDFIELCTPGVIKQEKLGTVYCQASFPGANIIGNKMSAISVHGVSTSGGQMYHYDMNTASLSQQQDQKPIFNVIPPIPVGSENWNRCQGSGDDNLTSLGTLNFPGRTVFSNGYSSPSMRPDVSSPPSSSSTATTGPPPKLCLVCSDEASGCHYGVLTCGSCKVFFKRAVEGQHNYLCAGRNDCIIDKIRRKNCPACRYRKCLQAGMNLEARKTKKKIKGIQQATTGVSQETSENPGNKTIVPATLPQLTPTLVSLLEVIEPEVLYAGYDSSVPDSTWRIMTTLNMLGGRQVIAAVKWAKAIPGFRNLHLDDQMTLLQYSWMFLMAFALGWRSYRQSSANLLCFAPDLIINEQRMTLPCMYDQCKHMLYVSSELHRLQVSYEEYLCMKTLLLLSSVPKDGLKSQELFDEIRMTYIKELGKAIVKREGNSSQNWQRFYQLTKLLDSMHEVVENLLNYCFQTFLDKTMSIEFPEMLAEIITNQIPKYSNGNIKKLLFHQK
Excerpt: as §1

AHR [7] = biological target: T1, AHR
Experimental: as §2

[8] = AZ-AHR cells, 4 h, luciferase activity by MICT in highest concentration / by 5 nM TCDD

Structure (SMILES)	EC50 (AHR [1])	efficacy class of AHR agonist based on magnitude of luciferase induction (AHR [1]; AZ-AHR cells, 4 h)	AHR agonist efficacy class (AHR [2])	other results
Cc1c[nH]c2ccccc12 [3MI, 3-methylindole]	8.4 µM	medium	medium efficacy	
CCCCC/C=C/C=C1/C(=O)C=C[C@@H]1C/C=C\CCCC(=O)O [15d-PGDJ, 15-Deoxy-δ12,14-Prostaglandin J2]				fold induction [3]: 3 fold
NC(=O)Cc1c[nH]c2ccccc12 [IAD, indole-3-acetamide]	4.5 µM	high	high-efficacy	relative efficacy, % of maximal induction to TCDD (AHR [1]; [8]): 84%
OCCc1c[nH]c2ccccc12 [IET, indole-3-ethanol]	29.3 ± 8.2 µM	medium	medium efficacy	
O=Cc1c[nH]c2ccccc12 [IA, Indole-3-aldehyde]	18.9 ± 3.9 µM	low	no or low efficacy	relative efficacy, % of maximal induction to TCDD (AHR [1]; [8]): ≈ 25%
O=C(O)C(O)Cc1c[nH]c2ccccc12 (centres unmarked) [ILA, indole-3-lactate]			no or low efficacy	
c1ccc2[nH]ccc2c1 [IND, Indole]	37.6 ± 14.4 µM		high-efficacy	EC50 (AHR [4]): ~3 µM; toxicity at very high concentrations (AZ-AHR cells): toxic; AHR activation compared with TCDD (AHR [5]): stronger than TCDD; efficacy class of AHR agonist based on magnitude of luciferase induction (AHR [1]): high; indole concentrations under which AHR was saturated (AHR [1]): > 20 µM; EC50 (AHR [2]): ~1500 µM
NCCc1c[nH]c2ccccc12 [TA, tryptamine]	13.8 µM		medium efficacy	efficacy class of AHR agonist based on magnitude of luciferase induction (AHR [1]): medium
C=C1CC[C@H](O)C/C1=C/C=C1\CCC[C@]2(C)[C@@H]([C@H](C)CCCC(C)C)CC[C@@H]12 [VD3, cholecalciferol]				fold induction at 0.075 µM (vitamin D receptor (VDR)): 65
C[C@]12CCC(=O)C[C@@H]1CC[C@@H]1[C@@H]2CC[C@]2(C)[C@@H](O)CC[C@@H]12 [DHT, 5α-dihydrotestosterone]				fold induction (androgen receptor (AR)): 20 fold
Clc1cc2c(cc1Cl)Oc1cc(Cl)c(Cl)cc1O2 [TCDD, 2,3,7,8-tetrachlorodibenzo-p-dioxin, reference compound]				fold induction at 0.005 µM (AHR [1]; read-out: fold induction of luciferase activity, AZ-AHR cells, 4 h, TCDD 5 nM, over control cells): ~200
C[C@@H]1C[C@H]2[C@@H]3CCC4=CC(=O)C=C[C@]4(C)[C@@]3(F)[C@@H](O)C[C@]2(C)[C@@]1(O)C(=O)CO [DEX, dexamethasone]				fold induction at 0.1 µM [6]: 22
O=C(O)CCc1c[nH]c2ccccc12 [IPA, indole-3-propionate]			no or low efficacy	EC50 (AHR [7]): 48.1 ± 15.2 µM; efficacy class of AHR agonist based on magnitude of luciferase induction (AHR [1]): low; relative efficacy, % of maximal induction to TCDD (AHR [1]): ≈ 25%
O=C(O)Cc1c[nH]c2ccccc12 [IAA, indole-3-acetate]			no or low efficacy	
O=C(O)C(=O)Cc1c[nH]c2ccccc12 [IPY, indole-3-pyruvate]		high	high-efficacy	EC50 (AHR [7]): 24.4 ± 12 µM; relative efficacy, % of maximal induction to TCDD (AHR [1]; [8]): 77%
O=C(O)/C=C/c1c[nH]c2ccccc12 [IAC, indole-3-acrylate]		high	medium efficacy	EC50 (AHR [7]): 8.4 µM; relative efficacy, % of maximal induction to TCDD (AHR [1]; [8]): 68%
